Patent US20080026417A1, “ASSAYS FOR TRICHOMONAL AND OTHER HYDROLASES” (priority 2002, published 2008)
Ends that are not written are not given here.

Assays:
[1] = system: trichomonal hydrolases; assay: Experiment 13: hydrolysis of peptide substrates by trichomonal hydrolases at low pH in vaginal fluid supernatant; type: biochemical, Trichomonas vaginalis; parameters: key: −: No red color produced; +: Clearly visible red color produced; ++: Moderately intense red color produced; +++: Very intense red color produced; details: Fast Garnet
Protocol: (§1) Forty μL of each substrate was pipetted into duplicate wells of a microtiter plate. The plate was covered with tape, placed into a 25° C. incubator, and allowed to warm. A diluted enzyme mixture was prepared by mixing one part (v/v) freshly-thawed trichomonal hydrolase solution to nine parts 2 mM L-cysteine solution. Forty μL of this mixture was added to one well of each pair of duplicate wells. For negative controls, 40 μL of 2 mM L-cysteine was added to the second well in each pair of duplicate wells. The plate was returned to the incubator and incubated for ten minutes. Forty μL of SDS/acetate solution was added to each well, followed by 40 μL of Fast Garnet solution. The intensity of color that developed in each well after five minutes was visually scored using the color scale presented in Table 13.1.
Of the nine substrates hydrolyzed by trichomonal hydrolases to produce an intense pink color (scoring ++ or +++) in the absence of vaginal fluid supernatant, only four produced intense pink color when vaginal fluid supernatant was present.

[2] = system: trichomonal hydrolases; assay: Experiment 13: hydrolysis of peptide substrates by trichomonal hydrolases at low pH, no vaginal fluid; type: biochemical, Trichomonas vaginalis; parameters: key: −: No red color produced; +: Clearly visible red color produced; ++: Moderately intense red color produced; +++: Very intense red color produced; details: without vaginal fluid; threonine buffer pH 2.4; 2 mM substrate solution; 10 min 25° C.; Fast Garnet
Protocol: as §1

[3] = system: non-trichomonal hydrolases present in vaginal fluid; assay: Experiment 8: polypeptide inhibition of hydrolases in whole vaginal fluid of uninfected women; type: biochemical, human; parameters: key: 0: Yellow; 1: Peach; 2: Orange; 3: Light to medium pink; 4: Dark pink or red; 5: Fuchsia; 6: Purple; details: ZRR-MNA, 10 mM polypeptide in substrate solution
Protocol: (§2) The vaginal fluid was extracted from each swab by centrifugation, and then mixed to resuspend the particulate matter. For each donor, 2 μL of vaginal fluid was pipetted into each of ten microwells, then 2 μL of one of the ten substrate/buffer/polypeptide combinations was added to each well. Additionally, 2 μL of trichomonal hydrolases was mixed with 2 μL of each of the substrate/polypeptide combinations in set of ten wells. After fifteen minutes, 2 μL of indicator solution was added to each well.

[4] = system: trichomonal hydrolases; assay: Experiment 8: polypeptide inhibition of trichomonal hydrolases; type: biochemical, Trichomonas vaginalis; parameters: key: 0: Yellow; 1: Peach; 2: Orange; 3: Light to medium pink; 4: Dark pink or red; 5: Fuchsia; 6: Purple; details: 10 mM polypeptide in substrate solution
Protocol: as §2

[5] = system: trichomonal hydrolases; assay: Experiment 1: hydrolysis of substrates by trichomonal hydrolases at pH 2.8-9.2, with or without normal vaginal fluid supernatant (NVS), absorbance 540 nm; type: biochemical, Trichomonas vaginalis; details: 540 nm
Protocol: Assays without normal vaginal fluid supernatant present: Two sets of six wells in a microtiter plate were prepared, with each well containing 80 μL of one of the six 200 mM buffers, 10 μL of water and 10 μL of diluted trichomonal hydrolases. Ten μL of ZRR-MNA was added to each well in the first set of wells, and 10 μl of VLK-MNA was added to each well in the second set of wells. After fifteen minutes, 100 μl of indicator solution was added to each well. Because a high pH can reduce the intensity of color produced by the indicator solution, 50 μl of 100 mM acetic acid buffer, pH 3.7, was added to each well except the pH 2.8 wells (water was substituted for the acetic acid in those wells). After another fifteen minutes, the absorbance of the solutions in the wells was measured on a microtiter plate reader set on 540 nm wavelength.
Assays with normal vaginal fluid supernatant (NVS) present: The procedure of the preceding paragraph was followed, except that 10 μL of diluted NVS was added to the wells in place of the 10 μL of water.

[6] = system: non-trichomonal hydrolases present in whole vaginal fluid; assay: Experiment 9: dipeptide inhibition of hydrolases in whole vaginal fluid of uninfected women; type: biochemical, human; parameters: key: 0: Yellow; 1: Peach; 2: Orange; 3: Light to medium pink; 4: Dark pink or red; 5: Fuchsia; 6: Purple; details: ZRR-MNA, 10 mM dipeptide in substrate solution
Protocol: (§3) For each specimen, the vaginal fluid was extracted from the swab by centrifugation, 2 μL of the vaginal fluid supernatant was removed from the microfuge tube, and the remainder of the fluid was mixed to resuspend the particulate matter. For each specimen, 2 μL of the thus reconstituted vaginal fluid was pipetted into each of four microwells, then 2 μL of one of the four substrate/dipeptide combinations was added to each well. The 2 μL of vaginal fluid supernatant from each specimen was mixed with 18 μL of trichomonal hydrolases, and 2 μL of this mixture was mixed with 2 μL of each of the substrate/dipeptide combinations in another set of four wells. After fifteen minutes, 2 μL of indicator solution was added to each well.

[7] = system: trichomonal hydrolases; assay: Experiment 9: dipeptide inhibition of trichomonal hydrolases mixed with vaginal fluid supernatant; type: biochemical, Trichomonas vaginalis; parameters: key: 0: Yellow; 1: Peach; 2: Orange; 3: Light to medium pink; 4: Dark pink or red; 5: Fuchsia; 6: Purple; details: trichomonal hydrolase added, ZRR-MNA, 10 mM dipeptide in substrate solution
Protocol: as §3

[8] = pH 5, Donor A whole vaginal fluid
[9] = pH 5, Donor B whole vaginal fluid
[10] = pH 5, Donor C whole vaginal fluid
[11] = pH 5, Donor D whole vaginal fluid
[12] = pH 8, Donor A whole vaginal fluid
[13] = pH 8, Donor B whole vaginal fluid
[14] = pH 8, Donor C whole vaginal fluid
[15] = pH 8, Donor D whole vaginal fluid
[16] = Donor A vaginal fluid supernatant
[17] = Donor B vaginal fluid supernatant
[18] = Donor C vaginal fluid supernatant
[19] = Donor D vaginal fluid supernatant

Molecule	Color Score [1]	Color Score [2]	Hydrolase activity color score with polypeptide [3, 8]	Hydrolase activity color score with polypeptide [3, 9]	Hydrolase activity color score with polypeptide [3, 10]	Hydrolase activity color score with polypeptide [3, 11]	Hydrolase activity color score with polypeptide [3, 12]	Hydrolase activity color score with polypeptide [3, 13]	Hydrolase activity color score with polypeptide [3, 14]	Hydrolase activity color score with polypeptide [3, 15]	Hydrolase activity color score with polypeptide ([4]; pH 5, ZRR-MNA)	Hydrolase activity color score with polypeptide ([4]; pH 8, ZRR-MNA)	other results
COc1cc(NC(=O)[C@H](CCCNC(=N)N)NC(=O)[C@H](Cc2ccccc2)NC(=O)OCc2ccccc2)cc2ccccc12 [CBZ-Phe-Arg-MNA]	+	++	–	–	–	–	–	–	–	–	–	–	–
COc1cc(NC(=O)[C@H](CCCNC(=N)N)NC(=O)[C@@H](NC(=O)[C@H](Cc2ccccc2)NC(=O)c2ccccc2)C(C)C)cc2ccccc12 [BZ-Phe-Val-Arg-MNA]	+	++	–	–	–	–	–	–	–	–	–	–	–
KPQLWP	–	–	0	0	0	0	0.5	0.5	0	0	3	3	–
COc1cc(NC(=O)C(CCCCN)NC(=O)C(CC(C)C)NC(=O)C(N)C(C)C)cc2ccccc12 [VLK-MNA, D-Val-Leu-Lys-MNA]	+	++	–	–	–	–	–	–	–	–	–	–	Absorbance Readings ([5]; with vaginal fluid supernatant, Acetate pH 5.1): 0.065; Absorbance Readings ([5]; with vaginal fluid supernatant, Borate pH 9.2): 0.062; Absorbance Readings ([5]; with vaginal fluid supernatant, Gly-gly pH 2.8): 0.094; Absorbance Readings ([5]; with vaginal fluid supernatant, HEPES pH 7.5): 0.063; Absorbance Readings ([5]; with vaginal fluid supernatant, MOPS pH 7.0): 0.066; Absorbance Readings ([5]; with vaginal fluid supernatant, TRIS pH 8.0): 0.073; Absorbance Readings ([5]; without vaginal fluid supernatant, Acetate pH 5.1): 1.622; Absorbance Readings ([5]; without vaginal fluid supernatant, Borate pH 9.2): 1.459; Absorbance Readings ([5]; without vaginal fluid supernatant, Gly-gly pH 2.8): 0.691; Absorbance Readings ([5]; without vaginal fluid supernatant, HEPES pH 7.5): 1.217; Absorbance Readings ([5]; without vaginal fluid supernatant, MOPS pH 7.0): 1.087; Absorbance Readings ([5]; without vaginal fluid supernatant, TRIS pH 8.0): 1.219
Lysine-valine	–	–	–	–	–	–	–	–	–	–	–	–	Hydrolase activity color score with dipeptide ([6]; Donor A whole vaginal fluid): 1; Hydrolase activity color score with dipeptide ([6]; Donor B whole vaginal fluid): 0; Hydrolase activity color score with dipeptide ([6]; Donor C whole vaginal fluid): 0; Hydrolase activity color score with dipeptide ([6]; Donor D whole vaginal fluid): 1.5; Hydrolase activity color score with dipeptide [7, 16]: 1; Hydrolase activity color score with dipeptide [7, 17]: 2; Hydrolase activity color score with dipeptide [7, 18]: 1; Hydrolase activity color score with dipeptide [7, 19]: 2
RPKPQFFGLM [Arg-Pro-Lys-Pro-Gln-Phe-Phe-Gly-Leu-Met]	–	–	0.5	1	0	0.5	0.5	0.5	0	0	1	0.5	–
COc1cc(NC(=O)[C@H](CCCN=C(N)N)NC(=O)[C@H](CCCN=C(N)N)NC(=O)[C@H](C)NC(=O)OCc2ccccc2)cc2ccccc12 [CBZ-Ala-Arg-Arg-MNA]	+	++	–	–	–	–	–	–	–	–	–	–	–
Lysine-lysine	–	–	–	–	–	–	–	–	–	–	–	–	Hydrolase activity color score with dipeptide ([6]; Donor A whole vaginal fluid): 1; Hydrolase activity color score with dipeptide ([6]; Donor B whole vaginal fluid): 0; Hydrolase activity color score with dipeptide ([6]; Donor C whole vaginal fluid): 0; Hydrolase activity color score with dipeptide ([6]; Donor D whole vaginal fluid): 2.5; Hydrolase activity color score with dipeptide [7, 16]: 1; Hydrolase activity color score with dipeptide [7, 17]: 2; Hydrolase activity color score with dipeptide [7, 18]: 1; Hydrolase activity color score with dipeptide [7, 19]: 2
COc1cc(NC(=O)[C@H](CCCN=C(N)N)NC(=O)[C@H](CC(C)C)NC(=O)OCc2ccccc2)cc2ccccc12 [ZLR, CBZ-Leu-Arg-MNA]	+++	+++	–	–	–	–	–	–	–	–	–	–	–
KRQHPG	–	–	2	2	0	2	2.5	2	0.5	2	3	3	–
Arg-Lys-Asn-Val-Tyr (RKNVY; printed: Arg-Lys-Asn-Val-Tyr)	–	–	0.5	0	0	0	0.5	0.5	1	1	3	3	–
Lysine-proline	–	–	–	–	–	–	–	–	–	–	–	–	Hydrolase activity color score with dipeptide ([6]; Donor A whole vaginal fluid): 0; Hydrolase activity color score with dipeptide ([6]; Donor B whole vaginal fluid): 0; Hydrolase activity color score with dipeptide ([6]; Donor C whole vaginal fluid): 0; Hydrolase activity color score with dipeptide ([6]; Donor D whole vaginal fluid): 0; Hydrolase activity color score with dipeptide [7, 16]: 1; Hydrolase activity color score with dipeptide [7, 17]: 1; Hydrolase activity color score with dipeptide [7, 18]: 0.5; Hydrolase activity color score with dipeptide [7, 19]: 2
